According to patent US20240228482A1, “COMPOUNDS, COMPOSITIONS AND METHODS OF TREATING CANCER” (HOTSPOT THERAPEUTICS, INC., priority 2021, published 2024):
Like-named read-outs stand apart in the source and are kept apart here.

Molecular target: T1, CBL-B (Homo sapiens, UniProt Q13191)
T1 construct: GST
Assay: CBL-B TR-FRET IC50 screening (E1/E2 ubiquitination, Biotin-Ubiquitin, Anti GST-Tb donor / Streptavidin-d2 acceptor)
Format: biochemical

[1] = second part of Table 2 (head 'Patent Cmpd No / Updated Activity'), same CBL-B TR-FRET IC50 bins A-F, read-out: Updated Activity
[2] = CBL-B 10 nM final, 11-point titration from 100 uM, binned A-F, read-out: CBL-B TR-FRET activity IC50

T1 sequence (Q13191 whole entry): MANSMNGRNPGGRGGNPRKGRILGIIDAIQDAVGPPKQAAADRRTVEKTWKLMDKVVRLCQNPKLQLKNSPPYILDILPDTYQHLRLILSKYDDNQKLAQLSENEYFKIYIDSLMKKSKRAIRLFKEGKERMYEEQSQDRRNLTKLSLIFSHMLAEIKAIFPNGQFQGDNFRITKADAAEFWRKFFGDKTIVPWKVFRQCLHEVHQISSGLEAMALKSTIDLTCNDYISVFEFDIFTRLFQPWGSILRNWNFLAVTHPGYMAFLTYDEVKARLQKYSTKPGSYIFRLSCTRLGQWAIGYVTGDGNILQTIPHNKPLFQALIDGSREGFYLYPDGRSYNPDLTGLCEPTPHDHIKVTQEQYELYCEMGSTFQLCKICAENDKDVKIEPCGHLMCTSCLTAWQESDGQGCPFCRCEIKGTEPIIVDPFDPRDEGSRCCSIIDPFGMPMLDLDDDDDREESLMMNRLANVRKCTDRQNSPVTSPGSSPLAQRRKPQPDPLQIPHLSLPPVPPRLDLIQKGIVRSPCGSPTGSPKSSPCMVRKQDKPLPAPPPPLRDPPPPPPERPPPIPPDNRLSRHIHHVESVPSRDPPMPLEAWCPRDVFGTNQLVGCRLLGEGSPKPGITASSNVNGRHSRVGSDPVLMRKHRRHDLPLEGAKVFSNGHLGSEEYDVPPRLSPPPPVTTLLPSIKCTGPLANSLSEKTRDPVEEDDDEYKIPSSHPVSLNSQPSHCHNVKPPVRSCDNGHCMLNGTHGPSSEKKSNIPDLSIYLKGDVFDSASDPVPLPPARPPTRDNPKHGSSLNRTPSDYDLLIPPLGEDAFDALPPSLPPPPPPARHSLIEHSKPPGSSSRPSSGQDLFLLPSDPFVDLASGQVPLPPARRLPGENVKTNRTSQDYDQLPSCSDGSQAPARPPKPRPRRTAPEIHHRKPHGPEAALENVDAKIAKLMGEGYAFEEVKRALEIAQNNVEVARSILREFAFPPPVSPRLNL

Row | SMILES | IC50 [1] [nM] | IC50 [2] [nM]
1 | CO[C@H]1C[C@](c2cccc(-n3cc4c(C(F)(F)F)cc([C@@H](C)N5CC[C@@H](F)C5)cn4c3=O)c2)(c2nncn2C)C1 (single isomer, unassigned) [Compound 617] | 100 to 300 | 
2 | CO[C@H]1C[C@](c2cccc(-n3cc4c(C(F)(F)F)cc([C@H](C)N5CC[C@@H](F)C5)cn4c3=O)c2)(c2nncn2C)C1 (single isomer, unassigned) [Compound 618] | 100 to 300 | 
3 | Cn1cnnc1[C@H](c1cc(F)cc(-n2cc3c(C(F)(F)F)cc(CN4CC(F)(F)C4)cn3c2=O)c1)C1CCC1 (single isomer, unassigned) [Compound 619] | > 10000 | 
4 | Cn1cnnc1[C@@H](c1cc(F)cc(-n2cc3c(C(F)(F)F)cc(CN4CC(F)(F)C4)cn3c2=O)c1)C1CCC1 (single isomer, unassigned) [Compound 620] | 100 to 300 | 
5 | CN1CC[C@]2(CCN(Cc3cc(C(F)(F)F)c4cn(-c5cccc([C@H](c6nncn6C)C6CCC6)c5)c(=O)n4c3)C2)C1=O (single isomer, unassigned) [Compound 621] | < 100 | 
6 | CN1CC[C@@]2(CCN(Cc3cc(C(F)(F)F)c4cn(-c5cccc([C@H](c6nncn6C)C6CCC6)c5)c(=O)n4c3)C2)C1=O (single isomer, unassigned) [Compound 623] | < 100 | 
7 | CC(Cc1nncn1C)c1cccc(-n2cc3c(C(F)(F)F)cccn3c2=O)c1 (stereo not shown) [Compound 1] |  | 301 to 1000
8 | C[C@H](Cc1nncn1C)c1cccc(-n2cc3c(C(F)(F)F)cccn3c2=O)c1 [Compound 2] |  | 301 to 1000
9 | C[C@@H](Cc1nncn1C)c1cccc(-n2cc3c(C(F)(F)F)cccn3c2=O)c1 [Compound 3] |  | 3000 to 10000
10 | Cn1cnnc1CC1CCc2c1cccc2-n1cc2c(C(F)(F)F)cccn2c1=O (stereo not shown) [Compound 4] |  | > 10000
11 | C[C@@H](Sc1nncn1C)c1cccc(-n2cc3c(C(F)(F)F)cccn3c2=O)c1 [Compound 5] |  | > 10000
12 | C[C@H](Sc1nncn1C)c1cccc(-n2cc3c(C(F)(F)F)cccn3c2=O)c1 [Compound 6] |  | > 10000
13 | Cn1cnnc1CC1(c2cccc(-n3cc4c(C(F)(F)F)cc(CN5CCC6(CC6)C5)cn4c3=O)c2)COC1 [Compound 10] |  | < 100
14 | Cn1cnnc1CC1(c2cccc(-n3cc4c(C(F)(F)F)cc(CN5CCC(C)(F)CC5)cn4c3=O)c2)COC1 [Compound 11] |  | < 100
15 | C[C@@H]1CN(Cc2cc(C(F)(F)F)c3cn(-c4cccc(C5(Cc6nncn6C)COC5)c4)c(=O)n3c2)CCO1 [Compound 12] |  | < 100
16 | Cn1cnnc1CC1(c2cccc(-n3cc4c(C(F)(F)F)cc(CN5CCC(F)CC5)cn4c3=O)c2)COC1 [Compound 13] |  | < 100
17 | CN1CC2CCC(C1)N2c1cc(C(F)(F)F)c2cn(-c3cccc(C4(Cc5nncn5C)COC4)c3)c(=O)n2c1 [Compound 15] |  | 100 to 300
18 | Cn1cnnc1C[C@@H]1CCc2c1cccc2-n1cc2c(C(F)(F)F)cccn2c1=O [Compound 17] |  | > 10000
19 | Cn1cnnc1CC1(c2cccc(-n3cc4c(C(F)(F)F)cc(CN5CCC[C@H](F)C5)cn4c3=O)c2)COC1 [Compound 22] |  | < 100
20 | Cn1cnnc1CC1(c2cccc(-n3cc4c(C(F)(F)F)cc(CN5CC[C@@H](C#N)C5)cn4c3=O)c2)COC1 [Compound 24] |  | < 100
21 | Cn1cnnc1CC1(c2cccc(-n3cc4c(C(F)(F)F)cc(CN5CC6CC6C5)cn4c3=O)c2)COC1 (stereo not shown) [Compound 25] |  | < 100
22 | Cn1cnnc1C(F)(F)[C@](C)(F)c1cccc(-n2cc3c(C(F)(F)F)cc(CN4CC[C@H](F)C4)cn3c2=O)c1 [Compound 26] |  | 100 to 300

Row | SMILES | IC50 [1] [nM] | IC50 [2] [nM]
23 | Cc1c2c(C(F)(F)F)cccn2c(=O)n1-c1cccc(C(C)Cc2nncn2C)c1 (stereo not shown) [Compound 27] |  | > 10000
24 | Cn1cnnc1C(F)(F)[C@@](C)(F)c1cccc(-n2cc3c(C(F)(F)F)cc(CN4CC[C@H](F)C4)cn3c2=O)c1 [Compound 28] |  | 100 to 300
25 | C[C@H]1CCCN(Cc2cc(C(F)(F)F)c3cn(-c4cccc(C5(Cc6nncn6C)COC5)c4)c(=O)n3c2)C1 [Compound 29] |  | < 100
26 | C[C@@H](c1cc(C(F)(F)F)c2cn(-c3cccc(C4(Cc5nncn5C)COC4)c3)c(=O)n2c1)N1CCC(F)CC1 [Compound 33] |  | < 100
27 | C[C@H](c1cc(C(F)(F)F)c2cn(-c3cccc(C4(Cc5nncn5C)COC4)c3)c(=O)n2c1)N1CCC(F)CC1 [Compound 34] |  | < 100
28 | Cn1cnnc1C(F)(F)[C@](C)(F)c1cccc(-n2cc3c(C(F)(F)F)cc(CN4CCC(F)(F)C4)cn3c2=O)c1 [Compound 35] |  | 3000 to 10000
29 | Cn1cnnc1C(F)(F)[C@@](C)(F)c1cccc(-n2cc3c(C(F)(F)F)cc(CN4CCC(F)(F)C4)cn3c2=O)c1 [Compound 36] |  | 301 to 1000
30 | C[C@H](c1cc(C(F)(F)F)c2cn(-c3cccc(C4(Cc5nncn5C)COC4)c3)c(=O)n2c1)N1CC2CC2C1 (stereo partly shown) [Compound 37] |  | < 100
31 | C[C@@H](c1cc(C(F)(F)F)c2cn(-c3cccc(C4(Cc5nncn5C)COC4)c3)c(=O)n2c1)N1CCC(C)(F)CC1 [Compound 41] |  | < 100
32 | C[C@H](c1cc(C(F)(F)F)c2cn(-c3cccc(C4(Cc5nncn5C)COC4)c3)c(=O)n2c1)N1CCC(C)(F)CC1 [Compound 42] |  | < 100
33 | Cn1cnnc1[C@@H]1C[C@@H]1c1cccc(-n2cc3c(C(F)(F)F)cccn3c2=O)c1 [Compound 43] |  | 3000 to 10000
34 | Cn1cnnc1[C@@H](F)C1(c2cccc(-n3cc4c(C(F)(F)F)cc(CN5CCC(F)CC5)cn4c3=O)c2)COC1 [Compound 44] |  | < 100
35 | C[C@H](Cc1nnc[nH]1)c1cccc(-n2cc3c(C(F)(F)F)cccn3c2=O)c1 [Compound 46] |  | 1000 to 3000
36 | C[C@@H](Cc1nnc[nH]1)c1cccc(-n2cc3c(C(F)(F)F)cccn3c2=O)c1 [Compound 47] |  | > 10000
37 | C[C@H]1CCCN(Cc2cc(C(F)(F)F)c3cn(-c4cccc(C5(Cc6nncn6C(F)F)COC5)c4)c(=O)n3c2)C1 [Compound 48] |  | < 100
38 | COC1CCN(Cc2cc(C(F)(F)F)c3cn(-c4cccc(C5(Cc6nncn6C)COC5)c4)c(=O)n3c2)CC1 [Compound 49] |  | < 100
39 | CC(Cc1nncn1C)c1ccc(F)c(-n2cc3c(C(F)(F)F)cccn3c2=O)c1 (stereo not shown) [Compound 52] |  | 3000 to 10000
40 | C[C@@H](c1cc(C(F)(F)F)c2cn(-c3cccc(C4([C@H](F)c5nncn5C)COC4)c3)c(=O)n2c1)N1CCC2(CC2)C1 [Compound 54] |  | 100 to 300
41 | C[C@H](c1cc(C(F)(F)F)c2cn(-c3cccc(C4([C@@H](F)c5nncn5C)COC4)c3)c(=O)n2c1)N1CCC2(CC2)C1 [Compound 55] |  | < 100
42 | C[C@@H](c1cc(C(F)(F)F)c2cn(-c3cccc(C4([C@@H](F)c5nncn5C)COC4)c3)c(=O)n2c1)N1CCC2(CC2)C1 [Compound 56] |  | < 100
43 | C[C@H](c1cc(C(F)(F)F)c2cn(-c3cccc(C4([C@H](F)c5nncn5C)COC4)c3)c(=O)n2c1)N1CCC2(CC2)C1 [Compound 57] |  | < 100

Results, then the compound that gave them:

Row | IC50 [1] [nM] | IC50 [2] [nM] | SMILES
44 |  | 100 to 300 | Cn1cnnc1CC1(c2cccc(-n3cc4c(C(F)(F)F)cc(Br)cn4c3=O)c2)COC1 [Compound 7]
45 |  | 100 to 300 | C=Cc1cc(C(F)(F)F)c2cn(-c3cccc(C4(Cc5nncn5C)COC4)c3)c(=O)n2c1 [Compound 8]
46 |  | 100 to 300 | Cn1cnnc1CC1(c2cccc(-n3cc4c(C(F)(F)F)cccn4c3=O)c2)COC1 [Compound 9]
47 |  | < 100 | Cn1cnnc1CC1(c2cccc(-n3cc4c(C(F)(F)F)cc(CN5CC[C@H](F)C5)cn4c3=O)c2)COC1 [Compound 14]
48 |  | 100 to 300 | Cn1cnnc1CC1(c2cccc(-n3cc4c(C(F)(F)F)cc(C#N)cn4c3=O)c2)COC1 [Compound 18]
49 |  | 1000 to 3000 | CC(=O)c1cc(C(F)(F)F)c2cn(-c3cccc(C4(Cc5nncn5C)COC4)c3)c(=O)n2c1 [Compound 19]
50 |  | 3000 to 10000 | Cn1cnnc1CC1(c2cccc(-n3cc4c(C(F)(F)F)cc(C(=O)O)cn4c3=O)c2)COC1 [Compound 20]
51 |  | < 100 | Cn1cnnc1CC1(c2cccc(-n3cc4c(C(F)(F)F)cc(CN5CC6(CC6)C5)cn4c3=O)c2)COC1 [Compound 21]
52 |  | < 100 | Cn1cnnc1CC1(c2cccc(-n3cc4c(C(F)(F)F)cc(CN5CC(F)C5)cn4c3=O)c2)COC1 [Compound 23]
53 |  | 1000 to 3000 | CNC(=O)c1cc(C(F)(F)F)c2cn(-c3cccc(C4(Cc5nncn5C)COC4)c3)c(=O)n2c1 [Compound 30]
54 |  | 301 to 1000 | CN(C)C(=O)c1cc(C(F)(F)F)c2cn(-c3cccc(C4(Cc5nncn5C)COC4)c3)c(=O)n2c1 [Compound 31]
55 |  | 301 to 1000 | CN(CCO)C(=O)c1cc(C(F)(F)F)c2cn(-c3cccc(C4(Cc5nncn5C)COC4)c3)c(=O)n2c1 [Compound 38]
56 |  | < 100 | C[C@@H](c1cc(C(F)(F)F)c2cn(-c3cccc(C4(Cc5nncn5C)COC4)c3)c(=O)n2c1)N1CC[C@H](F)C1 [Compound 39]
57 |  | < 100 | C[C@H](c1cc(C(F)(F)F)c2cn(-c3cccc(C4(Cc5nncn5C)COC4)c3)c(=O)n2c1)N1CC[C@H](F)C1 [Compound 40]
58 |  | < 100 | COCCNCc1cc(C(F)(F)F)c2cn(-c3cccc(C4(Cc5nncn5C)COC4)c3)c(=O)n2c1 [Compound 50]
59 |  | 301 to 1000 | COCCN(C)Cc1cc(C(F)(F)F)c2cn(-c3cccc(C4(Cc5nncn5C)COC4)c3)c(=O)n2c1 [Compound 51]
60 |  | < 100 | Cn1cnnc1CC1(c2cccc(-n3cc4c(C(F)(F)F)cc(CN5CCC(O)CC5)cn4c3=O)c2)COC1 [Compound 53]
61 |  | 1000 to 3000 | CN1CC=C(c2cc(C(F)(F)F)c3cn(-c4cccc(C5(Cc6nncn6C)COC5)c4)c(=O)n3c2)CC1 [Compound 58, 2-(3-[3-[(4-methyl-1,2,4-triazol-3-yl)methyl]oxetan-3-yl]phenyl)-6-(1-methyl-3,6-dihydro-2H-pyridin-4-yl)-8-(trifluoromethyl)imidazo[1,5-a]pyridin-3-one]
62 |  | 100 to 300 | Cn1cnnc1CC1(c2cccc(-n3cc4c(C(F)(F)F)cc(CN5CC(O)C5)cn4c3=O)c2)COC1 [Compound 61]
63 |  | 100 to 300 | CN1CCC=C(c2cc(C(F)(F)F)c3cn(-c4cccc(C5(Cc6nncn6C)COC5)c4)c(=O)n3c2)C1 [Compound 63]
64 |  | 1000 to 3000 | Cn1cnnc1CC1(c2cccc(-n3cc4c(C(F)(F)F)cc(C5=CCNC5)cn4c3=O)c2)COC1 [Compound 64]
